Assay: mn = molality of the nth substance listed, in mol/kg
Conditions: for surface tension liquid-gas: Maximal bubble pressure; for mass density: 100 kPa, Liquid, Vibrating tube method

CC(=O)[O-].CCCCCCn1cc[n+](C)c1 [3-hexyl-1-methylimidazolium acetate] + O
Conditions	mass density [kg/m3]	surface tension liquid-gas [mN/m]
288.15 K, m1 = 0.0117	1000.09	73
288.15 K, m1 = 0.0162	1000.19	72.9
288.15 K, m1 = 0.0285	1000.4	72.7
288.15 K, m1 = 0.044	1000.58	72.2
288.15 K, m1 = 0.1102	1001.44	70.4
288.15 K, m1 = 0.1674	1002.13	68.9
288.15 K, m1 = 0.2233	1002.92	67.6
288.15 K, m1 = 0.2797	1003.61	66.3
288.15 K, m1 = 0.3357	1004.39	65.1
288.15 K, m1 = 0.3914	1005.11	63.7
288.15 K, m1 = 0.4475	1005.8	62.4
288.15 K, m1 = 0.5029	1006.52	61.4
293.15 K, m1 = 0.0117	999.03	72.3
293.15 K, m1 = 0.0162	999.15	72.2
293.15 K, m1 = 0.0285	999.32	71.9
293.15 K, m1 = 0.044	999.53	71.3
293.15 K, m1 = 0.1102	1000.29	69.6
293.15 K, m1 = 0.1674	1000.95	68.2
293.15 K, m1 = 0.2233	1001.64	67
293.15 K, m1 = 0.2797	1002.33	65.6
293.15 K, m1 = 0.3357	1003	64.4
293.15 K, m1 = 0.3914	1003.71	63
293.15 K, m1 = 0.4475	1004.46	61.7
293.15 K, m1 = 0.5029	1005.19	60.7
298.15 K, m1 = 0.0117	997.74	71.6
298.15 K, m1 = 0.0162	997.89	71.4
298.15 K, m1 = 0.0285	998.01	71.1
298.15 K, m1 = 0.044	998.25	70.6
298.15 K, m1 = 0.1102	998.91	69
298.15 K, m1 = 0.1674	999.59	67.5
298.15 K, m1 = 0.2233	1000.3	66.2
298.15 K, m1 = 0.2797	1001	64.8
298.15 K, m1 = 0.3357	1001.66	63.7
298.15 K, m1 = 0.3914	1002.34	62.4
298.15 K, m1 = 0.4475	1003.01	61.1
298.15 K, m1 = 0.5029	1003.64	60.2
303.15 K, m1 = 0.0117	996.24	70.7
303.15 K, m1 = 0.0162	996.35	70.6
303.15 K, m1 = 0.0285	996.49	70.3
303.15 K, m1 = 0.044	996.69	69.7
303.15 K, m1 = 0.1102	997.44	68.1
303.15 K, m1 = 0.1674	998.06	66.8
303.15 K, m1 = 0.2233	998.79	65.6
303.15 K, m1 = 0.2797	999.48	64.1
303.15 K, m1 = 0.3357	1000.14	62.9
303.15 K, m1 = 0.3914	1000.78	61.7
303.15 K, m1 = 0.4475	1001.42	60.5
303.15 K, m1 = 0.5029	1002.04	59.6
308.15 K, m1 = 0.0117	994.58	69.8
308.15 K, m1 = 0.0162	994.69	69.7
308.15 K, m1 = 0.0285	994.81	69.4
308.15 K, m1 = 0.044	994.99	68.9
308.15 K, m1 = 0.1102	995.81	67.5
308.15 K, m1 = 0.1674	996.43	65.9
308.15 K, m1 = 0.2233	997.08	64.7
308.15 K, m1 = 0.2797	997.72	63.4
308.15 K, m1 = 0.3357	998.39	62.2
308.15 K, m1 = 0.3914	999.02	61.1
308.15 K, m1 = 0.4475	999.65	59.9
308.15 K, m1 = 0.5029	1000.24	58.9
313.15 K, m1 = 0.0117	992.75	69
313.15 K, m1 = 0.0162	992.83	68.9
313.15 K, m1 = 0.0285	992.94	68.7
313.15 K, m1 = 0.044	993.11	68.2
313.15 K, m1 = 0.1102	993.86	66.6
313.15 K, m1 = 0.1674	994.56	65.3
313.15 K, m1 = 0.2233	995.21	64.1
313.15 K, m1 = 0.2797	995.84	62.8
313.15 K, m1 = 0.3357	996.49	61.7
313.15 K, m1 = 0.3914	997.12	60.5
313.15 K, m1 = 0.4475	997.73	59.2
313.15 K, m1 = 0.5029	998.32	58.2
318.15 K, m1 = 0.0117	990.75	68.2
318.15 K, m1 = 0.0162	990.81	68.1
318.15 K, m1 = 0.0285	990.95	67.9
318.15 K, m1 = 0.044	991.1	67.4
318.15 K, m1 = 0.1102	991.84	65.8
318.15 K, m1 = 0.1674	992.43	64.4
318.15 K, m1 = 0.2233	993.11	63.3
318.15 K, m1 = 0.2797	993.76	62.1
318.15 K, m1 = 0.3357	994.39	61
318.15 K, m1 = 0.3914	995	59.7
318.15 K, m1 = 0.4475	995.59	58.5
318.15 K, m1 = 0.5029	996.16	57.7

From the NIST ThermoML archive (doi:10.1016/j.jct.2016.02.001)
